Assay results as given in US20240301319A1, “PERFUMING COMPOSITIONS” (FIRMNICH SA, priority 2017, published 2024).
Structures can show the parent of a compound that is named as a salt. Where two headings read alike, the source gives them in different places.

Assays:
[1] = Volatility of perfuming compounds (Tables 4 to 10), with top/middle/bottom note type; assay type: physicochemical
Summary of the method: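 Note type follows from air volatility (μg/l): bottom 49–0.1, middle 99–50, top 70,000–100. Compounds are listed within watery, green, fruity, citrus, sweet, gourmand and woody families.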

[2] = Odor threshold and odor value of perfuming compounds (Tables 4 to 10)
[3] = Table 6, perfuming compounds having a fruity note
[4] = Table 6, perfuming compounds having a fruity note, note type by volatility
[5] = note type (Top/Middle/Bottom) by volatility, perfuming compounds having a green note
[6] = perfuming compounds having a green note
[7] = Table 7, citrus note, top, middle or bottom note
[8] = Table 7, citrus note, equals volatility divided by odor threshold
[9] = Table 8, perfuming compounds having a sweet note
[10] = Table 8, perfuming compounds having a sweet note, note type by volatility
[11] = Table 9, perfuming compounds having a gourmand note, note type by volatility
[12] = Table 4, watery note, top, middle or bottom note
[13] = Table 4, watery note, equals volatility divided by odor threshold

Volatility [1, 3] [μg/l air] | Type [1, 5] | Volatility (μg/l air) [1, 6] [μg/l air] | SMILES | Type [1, 4] | Odor Threshold (μg/l air) [2, 6] [μg/l air] | Odor Threshold [2, 3] [μg/l air] | Odor Value [2, 3] | further results
9873.53 | Top | 9873.53 | CC/C=C\CCOC=O [(Z)-3-HEXENYL FORMATE] | TOP (perfuming compounds having a volatility ranging from 70,000 to 100 μg/l in air are referred to as “top notes”) | 2.11E−03 |  |  | 
1073.97 | Top | 1073.97 | CC/C=C\CCOC(=O)C(C)C [(Z)-3-HEXENYL ISOBUTYRATE] | TOP (perfuming compounds having a volatility ranging from 70,000 to 100 μg/l in air are referred to as “top notes”) | 4.54E−02 |  |  | 
 | Top | 2431.73 | CC/C=C\CCCCC=O [(Z)-6-NONENAL] |  | 2.91E−05 |  |  | 
 |  |  | CCCOC(=O)[C@H](C)OC(C)(C)CC [(−)-PROPYL (S)-2-(1,1-DIMETHYLPROPOXY)PROPANOATE] |  |  |  |  | Volatility (μg/l air) ([1]; Table 7, citrus note): 995.16 μg/l air; Type [1, 7]: Top; Odor Threshold (μg/l air) ([2]; Table 7, citrus note): 4.98E−01 μg/l air; Odor Value [2, 8]: 2.00E+03
75.80 | Middle | 75.80 | C=CCOC(=O)CCC1CCCCC1 [ALLYL 3-CYCLOHEXYLPROPANOATE] | Middle | 7.96E−03 | 7.96E−03 | 9.53E+03 | Volatility [1, 9]: 75.80 μg/l air; Type [1, 10]: Middle; Volatility ([1]; Table 9, gourmand note): 75.80 μg/l air; Type [1, 11]: Middle; Odor Threshold [2, 9]: 7.96E−03 μg/l air; Odor Value [2, 9]: 9.53E+03; Odor Threshold ([2]; Table 9, gourmand note): 7.96E−03 μg/l air
47.01 | Bottom | 47.01 | C=CCOC(=O)COC1CCCCC1 [ALLYL (CYCLOHEXYLOXY)ACETATE] | Bottom | 4.66E−05 | 4.66E−05 | 1.01E+06 | 
1235.24 | Top | 1235.24 | C=CCOC(=O)CCCCCC [ALLYL HEPTANOATE] | TOP (perfuming compounds having a volatility ranging from 70,000 to 100 μg/l in air are referred to as “top notes”) | 1.75E−02 |  |  | Volatility [1, 9]: 1235.24 μg/l air; Type [1, 10]: Top; Volatility ([1]; Table 9, gourmand note): 1235.24 μg/l air; Type [1, 11]: Top; Odor Threshold [2, 9]: 1.75E−02 μg/l air; Odor Value [2, 9]: 7.06E+04; Odor Threshold ([2]; Table 9, gourmand note): 1.75E−02 μg/l air
33.88 |  |  | C/C=C(\C)C(=O)OCc1ccccc1 [BENZYL (E)-2-METHYL-2-BUTENOATE] | Bottom |  | 3.07E−04 | 1.11E+05 | Type ([1]; Table 10, perfuming compounds having a woody note, note type by volatility): Bottom; Volatility ([1]; Table 10, woody note): 33.88 μg/l air; Odor Threshold ([2]; Table 10, woody note): 3.07E−04 μg/l air
0.85 |  |  | O=C(OCc1ccccc1)c1ccccc1 [BENZYL BENZOATE] | Bottom |  | 3.67E−02 | 2.31E+01 | Volatility (μg/l air) ([1]; Table 7, citrus note): 0.85 μg/l air; Type [1, 7]: Bottom; Odor Threshold (μg/l air) ([2]; Table 7, citrus note): 3.67E−02 μg/l air; Odor Value [2, 8]: 2.31E+01
113.60 | Top | 113.60 | CCC(=O)OCc1ccccc1 [BENZYL PROPANOATE] | TOP (perfuming compounds having a volatility ranging from 70,000 to 100 μg/l in air are referred to as “top notes”) | 2.81E−02 | 2.81E−02 | 4.04E+03 | 
 |  |  | CCCCOC(C)=O [BUTYL ACETATE] | TOP (perfuming compounds having a volatility ranging from 70,000 to 100 μg/l in air are referred to as “top notes”) |  |  |  | Volatility [1]: 117207.52 μg/l air; Type [1, 10]: Top; Type [1, 11]: Top; Odor Threshold [2, 9]: 4.18E−01 μg/l air; Odor Value [2, 9]: 2.80E+05; Odor Threshold ([2]; Table 9, gourmand note): 4.18E−01 μg/l air
 | Bottom | 0.96 | N#CC(=C1CCCCC1)c1ccccc1 [CYCLOHEXYLIDENE(PHENYL)ACETONITRILE] |  | 3.31E−04 |  |  | 
 |  |  | CCCCCCCCCC=O [DECANAL″] |  |  |  |  | Volatility (μg/l air) ([1]; Table 4, watery note): 466.56 μg/l air; Type [1, 12]: TOP (perfuming compounds having a volatility ranging from 70,000 to 100 μg/l in air are referred to as “top notes”); Odor Threshold (μg/l air) ([2]; Table 4, watery note): 1.92E−03 μg/l air; Odor Value [2, 13]: 2.43E+05
 |  |  | C=CCSSCC=C [DIALLYL DISULFIDE] |  |  |  |  | Volatility [1, 9]: 5487.52 μg/l air; Type [1, 10]: Top; Volatility ([1]; Table 9, gourmand note): 5487.52 μg/l air; Type [1, 11]: Top; Odor Threshold [2, 9]: 3.98E−05 μg/l air; Odor Value [2, 9]: 1.38E+08; Odor Threshold ([2]; Table 9, gourmand note): 3.98E−05 μg/l air
 | Top | 2766.10 | CCCCSCCCC [DIBUTYL SULFIDE] |  | 2.34E−02 |  |  | 
 |  |  | CCCCCCCCCCCC=O [DODECANAL] |  |  |  |  | Volatility (μg/l air) ([1]; Table 4, watery note): 144.79 μg/l air; Type [1, 12]: TOP (perfuming compounds having a volatility ranging from 70,000 to 100 μg/l in air are referred to as “top notes”); Odor Threshold (μg/l air) ([2]; Table 4, watery note): 9.90E−04 μg/l air; Odor Value [2, 13]: 1.46E+05
 |  |  | CCCCCCCCCCCC#N [DODECANENITRILE] |  |  |  |  | Volatility (μg/l air) ([1]; Table 4, watery note): 56.74 μg/l air; Type [1, 12]: middle (perfuming compounds having a volatility ranging from 99 to 50 μg/l in air are referred to as “middle notes”); Odor Threshold (μg/l air) ([2]; Table 4, watery note): 3.20E−06 μg/l air; Odor Value [2, 13]: 1.77E+07
479.20 | Top | 479.20 | CCOC(=O)CC1(C)OCCO1 [ETHYL 2-METHYL-1,3-DIOXOLANE-2-ACETATE] | TOP (perfuming compounds having a volatility ranging from 70,000 to 100 μg/l in air are referred to as “top notes”) | 1.62E−03 |  |  | Volatility [1, 9]: 479.20 μg/l air; Type [1, 10]: Top; Volatility ([1]; Table 9, gourmand note): 479.20 μg/l air; Type [1, 11]: Top; Odor Threshold [2, 9]: 1.62E−03 μg/l air; Odor Value [2, 9]: 2.95E+05; Odor Threshold ([2]; Table 9, gourmand note): 1.62E−03 μg/l air
25.34 | Bottom | 25.34 | CCC=CCC=C/C=C/C(=O)OCC [ETHYL (2E)-2,4,7-DECATRIENOATE] | Bottom | 1.49E−02 | 1.49E−02 | 1.70E+03 | 
20.55 |  |  | CCOC(=O)/C=C/c1ccccc1 [ETHYL (E)-3-PHENYL-2-PROPENOATE] | Bottom |  | 2.38E−05 | 8.62E+05 | 
142519.74 | Top | 142519.74 | CCCC(=O)OCC [ETHYL BUTANOATE] | TOP (perfuming compounds having a volatility ranging from 70,000 to 100 μg/l in air are referred to as “top notes”) | 3.68E−04 |  |  | 
9675.10 | Top | 9675.10 | CCCCCC(=O)OCC [ETHYL HEXANOATE] | TOP (perfuming compounds having a volatility ranging from 70,000 to 100 μg/l in air are referred to as “top notes”) | 9.11E−04 |  |  | Volatility [1, 9]: 9675.10 μg/l air; Type [1, 10]: Top; Volatility ([1]; Table 9, gourmand note): 9675.10 μg/l air; Type [1, 11]: Top; Odor Threshold [2, 9]: 9.11E−04 μg/l air; Odor Value [2, 9]: 1.06E+07; Odor Threshold ([2]; Table 9, gourmand note): 9.11E−04 μg/l air
 | Top | 22184.00 | CCCCCCC=O [HEPTANAL] |  | 2.03E−03 |  |  | 
3.82 | Bottom | 3.82 | CCCCCCOC(=O)c1ccccc1O [HEXYL 2-HYDROXYBENZOATE] | Bottom | 5.50E−03 | 5.50E−03 | 6.95E+02 | Volatility (μg/l air) ([1]; Table 7, citrus note): 3.82 μg/l air; Type [1, 7]: Bottom; Odor Threshold (μg/l air) ([2]; Table 7, citrus note): 5.50E−03 μg/l air; Odor Value [2, 8]: 6.95E+02
2316.04 | Top | 2316.04 | CCCCCCOC(C)=O [HEXYL ACETATE] | TOP (perfuming compounds having a volatility ranging from 70,000 to 100 μg/l in air are referred to as “top notes”) | 1.32E−01 |  |  | 

SMILES | Volatility [1, 3] [μg/l air] | Type [1, 5] | Volatility (μg/l air) [1, 6] [μg/l air] | Type [1, 4] | Odor Threshold (μg/l air) [2, 6] [μg/l air] | Odor Threshold [2, 3] [μg/l air] | Odor Value [2, 3] | further results
CCCCC/C=C\CCC=O [(Z)-4-DECENAL] |  | Top | 629.54 |  | 3.78E−05 |  |  | 
CCOC(=O)C1OC1(C)c1ccccc1 (stereo not drawn) [ETHYL 2,3-EPDXY-3-PHENYLBUTANOATE] | 12.97 |  |  | Bottom |  | 2.28E−05 | 5.68E+05 | 
CCCCCC(=O)O [HEXANOIC ACID] |  | Top | 197.90 |  | 1.82E−02 |  |  | Volatility [1, 9]: 197.90 μg/l air; Type [1, 10]: Top; Volatility ([1]; Table 9, gourmand note): 197.90 μg/l air; Type [1, 11]: Top; Odor Threshold [2, 9]: 1.82E−02 μg/l air; Odor Value [2, 9]: 1.09E+04; Odor Threshold ([2]; Table 9, gourmand note): 1.82E−02 μg/l air
